Patent publication US20230331715A1, “SPIRO[3.3]HEPTANE DERIVATIVES FOR THE TREATMENT AND PROPHYLAXIS OF HEPATITIS B VIRUS INFECTION” (priority 2020, published 2023)

Assays:
Format in all cases: cell-based
HBeAg = assay: PHH HBV natural infection assay, HBeAg (alphalisa); conditions: Hepatitis B virus, 72 h, read-out: HBeAg IC50, HBV-infected PHH, culture supernatant, compound refreshed two times with 72-hour interval, alphalisa
Procedure: (§1) Detailed procedures regarding primary human hepatocyte (PHH) HBV natural infection assay are described as below. One tube of frozen PHH (10 million cells) is thawed in 37° C. water bath and then transferred to 20 mL of PHH thawing medium (Sigma, InVitroGRO HT Medium, Cat. S03319) with gently mixing. The cells were then centrifuged at […] for 5 min, the supernatant was discarded and the tube was refilled with 25 mL of PHH plating medium (Sigma, InVitroGRO CP Medium, Cat. S03317). The tube was shaken very gently to re-suspend all cells, and then 50 µl of cells were transferred to each well 384-well collagen I coated plate with appropriate liquid handling equipment, e.g. Integra VIAFLO384 or Agilent Bravo. The cells were then cultured for 24 hours in a cell incubator. For HBV infection, after PHH attachment on the culture plate, the plating medium was removed and replenished with PHH culture medium containing HBV virus. The PHH culture medium was prepared with Dulbecco’s Modified Eagle Medium (DMEM)/F12 (1: 1 in volume ratio) containing 10% fetal bovine serum (Gibco, Cat. 10099141), 5 ng/mL human epidermal growth factor (Gibco, Cat.PHG0311L), 20 ng/mL dexamethasone (Sigma, Cat.D4902-100mg), 250 ng/mL human recombinant insulin (Gibco, Cat.41400045) and 100 U/mL penicillin. HBV virus at 200 genome equivalent (GE) per cell with 4% PEG8000 (Sigma, Cat.P1458) containing culture medium were added to the PHH culture medium for infection. The cells were then cultured for 24 hours in cell incubator. Then the cell culture supernatant was removed. The HBV-infected PHH were cultured with sandwich culture method with PHH culture medium containing 1% DMSO and 0.25 mg/mL matrix gel for 72 hours. The supernatant was then refreshed with PHH culture medium containing different concentrations of testing compounds for two times with 72-hour interval. At the end of treatment, the supernatant was collected for viral markers measurements, including HBsAg, HBeAg, HBV DNA and cytotoxicity. HBsAg and HBeAg were detected using alphalisa method using their specific antibodies. For HBV DNA detection, HBV DNA Quantitative Fluorescence Diagnostic Kit (Sansure Biotech Inc.) was used following the manufacture’s protocol. Cytotoxicity was determined using Cell Counting Kit-8 (CCK8, Dojindo Molecular Technologies, Inc.).
(§2) The compounds of the present invention were tested for their capacity to inhibit HBsAg and HBeAg as described herein.

[1] = Cytotoxicity in PHH natural infection assay (Cell Counting Kit-8); conditions: human; HBV-infected PHH, CCK8, compound refreshed two times with 72-hour interval
Procedure: as §1

HBsAg = assay: PHH HBV natural infection assay, HBsAg (alphalisa); conditions: Hepatitis B virus, 72 h, read-out: HBsAg IC50, HBV-infected PHH, culture supernatant, compound refreshed two times with 72-hour interval, alphalisa
Procedure: as §1, §2

O=C(NC1CC2(C1)CC(c1nc3cc(Cl)ccc3s1)C2)c1ccc(S(=O)(=O)NC2CC(C(F)(F)F)C2)o1 (stereo not drawn) [Example 24, N-[6-(5-chloro-1,3-benzothiazol-2-yl)spiro[3.3]heptan-2-yl]-5-[[3-(trifluoromethyl)cyclobutyl]sulfamoyl]furan-2-carboxamide]
IC50 (HBeAg): 1.04 µM | CC50 at 144 h [1]: 19.7 µM | IC50 (HBsAg): 1.4 µM

O=C(NC1CC2(C1)CC(c1nc3cc(Cl)ccc3s1)C2)C1CS(=O)(=O)C1 (stereo not drawn) [Example 25, N-[6-(5-chloro-1,3-benzothiazol-2-yl)spiro[3.3]heptan-2-yl]-1,1-dioxo-thietane-3-carboxamide]
IC50 (HBeAg): 2.07 µM | CC50 at 144 h [1]: > 10 µM | IC50 (HBsAg): 2.59 µM

O=C(NC1CC2(C1)CC(c1nc3cc(Cl)ccc3s1)C2)C1CCS(=O)(=O)C1 (stereo not drawn) [Example 26, N-[6-(5-chloro-1,3-benzothiazol-2-yl)spiro[3.3]heptan-2-yl]-1,1-dioxo-thiolane-3-carboxamide]
IC50 (HBeAg): 1.18 µM | CC50 at 144 h [1]: > 100 µM | IC50 (HBsAg): 1.99 µM

O=C(NC1CC2(C1)CC(c1nc3ccc(Cl)cc3s1)C2)C1CCS(=O)(=O)C1 (stereo not drawn) [Example 27, N-[6-(6-chloro-1,3-benzothiazol-2-yl)spiro[3.3]heptan-2-yl]-1,1-dioxo-thiolane-3-carboxamide]
IC50 (HBeAg): 0.56 µM | CC50 at 144 h [1]: > 100 µM | IC50 (HBsAg): 1.15 µM

O=C(CC1CS(=O)(=O)C1)NC1CC2(C1)CC(c1nc3cc(Cl)ccc3s1)C2 (stereo not drawn) [Example 28, N-[6-(5-chloro-1,3-benzothiazol-2-yl)spiro[3.3]heptan-2-yl]-2-(1,1-dioxothietan-3-yl)acetamide]
IC50 (HBeAg): 1.66 µM | CC50 at 144 h [1]: > 10 µM | IC50 (HBsAg): 3.28 µM

O=C(CC1CCCS1(=O)=O)NC1CC2(C1)CC(c1nc3cc(Cl)ccc3s1)C2 (stereo not drawn) [Example 29, N-[6-(5-chloro-1,3-benzothiazol-2-yl)spiro[3.3]heptan-2-yl]-2-(1,1-dioxothiolan-2-yl)acetamide]
IC50 (HBeAg): 3.59 µM | CC50 at 144 h [1]: > 10 µM | IC50 (HBsAg): 4.74 µM

O=C(CC1CCCS(=O)(=O)C1)NC1CC2(C1)CC(c1nc3cc(Cl)ccc3s1)C2 (stereo not drawn) [Example 30, N-[6-(5-chloro-1,3-benzothiazol-2-yl)spiro[3.3]heptan-2-yl]-2-(1,1-dioxothian-3-yl)acetamide]
IC50 (HBeAg): 3.47 µM | CC50 at 144 h [1]: > 10 µM | IC50 (HBsAg): 3.47 µM

CCN1CC(C(=O)NC2CC3(C2)CC(c2nc4cc(Cl)ccc4s2)C3)CC1=O (stereo not drawn) [Example 31, N-[6-(5-chloro-1,3-benzothiazol-2-yl)spiro[3.3]heptan-2-yl]-1-ethyl-5-oxo-pyrrolidine-3-carboxamide]
IC50 (HBeAg): 8.29 µM | CC50 at 144 h [1]: > 10 µM | IC50 (HBsAg): 9.58 µM

CN1CCC(C(=O)NC2CC3(C2)CC(c2nc4cc(Cl)ccc4s2)C3)CC1=O (stereo not drawn) [Example 32, N-[6-(5-chloro-1,3-benzothiazol-2-yl)spiro[3.3]heptan-2-yl]-1-methyl-2-oxo-piperidine-4-carboxamide]
IC50 (HBeAg): 4.13 µM | CC50 at 144 h [1]: > 10 µM | IC50 (HBsAg): 6.11 µM

O=C1CCC(CC(=O)NC2CC3(C2)CC(c2nc4cc(Cl)ccc4s2)C3)N1 (stereo not drawn) [Example 33, N-[6-(5-chloro-1,3-benzothiazol-2-yl)spiro[3.3]heptan-2-yl]-2-(5-oxopyrrolidin-2-yl)acetamide]
IC50 (HBeAg): 4.12 µM | CC50 at 144 h [1]: > 10 µM | IC50 (HBsAg): 4.08 µM

O=C(NC1CC2(C1)CC(c1nc3cc(Cl)ccc3s1)C2)C1CCS(=O)(=O)N1 (stereo not drawn) [Example 34, N-[6-(5-chloro-1,3-benzothiazol-2-yl)spiro[3.3]heptan-2-yl]-1,1-dioxo-1,2-thiazolidine-3-carboxamide]
IC50 (HBeAg): 5.67 µM | CC50 at 144 h [1]: > 10 µM | IC50 (HBsAg): 7.11 µM

O=C(CN1CCCCS1(=O)=O)NC1CC2(C1)CC(c1nc3cc(Cl)ccc3s1)C2 (stereo not drawn) [Example 35, N-[6-(5-chloro-1,3-benzothiazol-2-yl)spiro[3.3]heptan-2-yl]-2-(1,1-dioxothiazinan-2-yl)acetamide]
IC50 (HBeAg): 2.98 µM | CC50 at 144 h [1]: > 10 µM | IC50 (HBsAg): 3.18 µM

CS(=O)(=O)c1cc(C(=O)NC2CC3(C2)CC(c2nc4cc(Cl)ccc4s2)C3)ccn1 (stereo not drawn) [Example 36, N-[6-(5-chloro-1,3-benzothiazol-2-yl)spiro[3.3]heptan-2-yl]-2-methylsulfonyl-pyridine-4-carboxamide]
IC50 (HBeAg): 0.86 µM | CC50 at 144 h [1]: > 50 µM | IC50 (HBsAg): 1.08 µM

O=C(NC1CC2(C1)CC(c1nc3ccc(Cl)cc3s1)C2)c1ccnc(S(=O)(=O)C2CC2)c1 (stereo not drawn) [Example 37, N-[6-(6-chloro-1,3-benzothiazol-2-yl)spiro[3.3]heptan-2-yl]-2-cyclopropylsulfonyl-pyridine-4-carboxamide]
IC50 (HBeAg): 0.2 µM | CC50 at 144 h [1]: 10.1 µM | IC50 (HBsAg): 0.23 µM

CC(C)(C)S(=O)(=O)c1cc(C(=O)NC2CC3(C2)CC(c2nc4cc(Cl)ccc4s2)C3)ccn1 (stereo not drawn) [Example 38, 2-tert-butylsulfonyl-N-[6-(5-chloro-1,3-benzothiazol-2-yl)spiro[3.3]heptan-2-yl]pyridine-4-carboxamide]
IC50 (HBeAg): 1.49 µM | CC50 at 144 h [1]: 30.8 µM | IC50 (HBsAg): 1.95 µM

O=C(NC1CC2(C1)CC(c1nc3cc(Cl)ccc3s1)C2)c1ccnc(S(=O)(=O)CC2CC2)c1 (stereo not drawn) [Example 39, N-[6-(5-chloro-1,3-benzothiazol-2-yl)spiro[3.3]heptan-2-yl]-2-(cyclopropylmethylsulfonyl)pyridine-4-carboxamide]
IC50 (HBeAg): 0.34 µM | CC50 at 144 h [1]: > 10 µM | IC50 (HBsAg): 0.79 µM

CS(=N)(=O)c1cc(C(=O)NC2CC3(C2)CC(c2nc4cc(Cl)ccc4s2)C3)ccn1 (stereo not drawn) [Example 40, N-[6-(5-chloro-1,3-benzothiazol-2-yl)spiro[3.3]heptan-2-yl]-2-(methylsulfonimidoyl)pyridine-4-carboxamide]
IC50 (HBeAg): 2.41 µM | CC50 at 144 h [1]: > 10 µM | IC50 (HBsAg): 2.53 µM

N=S(=O)(c1cc(C(=O)NC2CC3(C2)CC(c2nc4cc(Cl)ccc4s2)C3)ccn1)C1CC1 (stereo not drawn) [Example 41, N-[6-(5-chloro-1,3-benzothiazol-2-yl)spiro[3.3]heptan-2-yl]-2-(cyclopropylsulfonimidoyl)pyridine-4-carboxamide]
IC50 (HBeAg): 0.67 µM | CC50 at 144 h [1]: > 10 µM | IC50 (HBsAg): 0.9 µM

COc1cc(C(=O)NC2CC3(C2)CC(c2nc4cc(Cl)ccc4s2)C3)ccn1 (stereo not drawn) [Example 42, N-[6-(5-chloro-1,3-benzothiazol-2-yl)spiro[3.3]heptan-2-yl]-2-methoxy-pyridine-4-carboxamide]
IC50 (HBeAg): 2.67 µM | CC50 at 144 h [1]: > 10 µM | IC50 (HBsAg): 3.12 µM

CC(C)Oc1cc(C(=O)NC2CC3(C2)CC(c2nc4cc(Cl)ccc4s2)C3)ccn1 (stereo not drawn) [Example 43, N-[6-(5-chloro-1,3-benzothiazol-2-yl)spiro[3.3]heptan-2-yl]-2-isopropoxy-pyridine-4-carboxamide]
IC50 (HBeAg): 2.86 µM | CC50 at 144 h [1]: > 10 µM | IC50 (HBsAg): 3.23 µM

CNc1cc(C(=O)NC2CC3(C2)CC(c2nc4cc(Cl)ccc4s2)C3)ccn1 (stereo not drawn) [Example 44, N-[6-(5-chloro-1,3-benzothiazol-2-yl)spiro[3.3]heptan-2-yl]-2-(methylamino)pyridine-4-carboxamide]
IC50 (HBeAg): 3.18 µM | CC50 at 144 h [1]: > 10 µM | IC50 (HBsAg): 3.24 µM

O=C(NC1CC2(C1)CC(c1nc3cc(Cl)ccc3s1)C2)c1ccnc(NC2CC2)c1 (stereo not drawn) [Example 45, N-[6-(5-chloro-1,3-benzothiazol-2-yl)spiro[3.3]heptan-2-yl]-2-(cyclopropylamino)pyridine-4-carboxamide]
IC50 (HBeAg): 5.18 µM | CC50 at 144 h [1]: > 10 µM | IC50 (HBsAg): 6.08 µM

CN(C)c1cc(C(=O)NC2CC3(C2)CC(c2nc4cc(Cl)ccc4s2)C3)ccn1 (stereo not drawn) [Example 46, N-[6-(5-chloro-1,3-benzothiazol-2-yl)spiro[3.3]heptan-2-yl]-2-(dimethylamino)pyridine-4-carboxamide]
IC50 (HBeAg): 3.35 µM | CC50 at 144 h [1]: > 10 µM | IC50 (HBsAg): 4.2 µM

CCN(C)c1cc(C(=O)NC2CC3(C2)CC(c2nc4cc(Cl)ccc4s2)C3)ccn1 (stereo not drawn) [Example 47, N-[6-(5-chloro-1,3-benzothiazol-2-yl)spiro[3.3]heptan-2-yl]-2-[ethyl(methyl)amino]pyridine-4-carboxamide]
IC50 (HBeAg): 4.8 µM | CC50 at 144 h [1]: > 10 µM | IC50 (HBsAg): 5.85 µM
